The assay has as its target APJ receptor (Homo sapiens (Human), UniProt P35414). Briefly: [35S]GTPγS binding assay on membranes from CHO cells stably expressing human APJ receptor. The conditions noted are these: membranes of CHO cells stably expressing human APJ receptor, means of several independent experiments, read-out: Activity hAPJ SPA EC50 IP. It counts as biochemical. The method in brief: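 Membranes from CHO cells stably expressing human APJ were incubated with 0.2 nM [35S]GTPγS and ligands for 90 min at RT in 20 mM HEPES pH 7.5, 5 mM MgCl2, 200 mM NaCl, 3 μM GDP, 0.1% BSA with WGA PS beads. Nonspecific binding was set with 100 μM GTPγS. EC50 came from non-linear regression.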
(GTPγS is a poorly hydrolysed GTP analogue; its binding reports G protein activation.)

Chain of APJ receptor (P35414 whole entry): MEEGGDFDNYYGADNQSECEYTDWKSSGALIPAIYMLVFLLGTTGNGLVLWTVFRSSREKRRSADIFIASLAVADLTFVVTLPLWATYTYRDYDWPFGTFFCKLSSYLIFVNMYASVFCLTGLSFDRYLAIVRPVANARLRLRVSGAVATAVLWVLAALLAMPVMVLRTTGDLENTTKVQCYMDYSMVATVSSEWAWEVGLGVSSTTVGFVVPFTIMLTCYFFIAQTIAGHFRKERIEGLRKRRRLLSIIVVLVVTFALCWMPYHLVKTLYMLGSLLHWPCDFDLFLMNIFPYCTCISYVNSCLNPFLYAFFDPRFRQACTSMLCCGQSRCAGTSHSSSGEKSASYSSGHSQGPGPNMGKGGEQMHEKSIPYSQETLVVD

As for `COc1cccc(OC)c1-n1c(NS(=O)(=O)[C@@H](C)[C@H](OC)c2cn3ccccc3n2)nnc1-c1ccc(C)o1` (single isomer, unassigned) [Example 263.0, (1R,2S)—N-(4-(2,6-Dimethoxyphenyl)-5-(5-methyl-2-furanyl)-4H-1,2,4-triazol-3-yl)-1-imidazo[1,2-a]pyridin-2-yl-1-methoxy-2-propanesulfonamide or (1S,2R)—N-(4-(2,6-dimethoxyphenyl)-5-(5-methyl-2-furanyl)-4H-1,2,4-triazol-3-yl)-1-imidazo[1,2-a]pyridin-2-yl-1-methoxy-2-propanesulfonamide], the EC50 was 0.086 nM.
Take `COc1cccc(OC)c1-n1c(NS(=O)(=O)[C@H](C)[C@H](OC)c2ncc(F)cn2)nnc1-c1ccc(C)o1` (single isomer, unassigned) [Example 122.0, (1R,2R)-N-(4-(2,6-dimethoxyphenyl)-5-(5-methylfuran-2-yl)-4H-1,2,4-triazol-3-yl)-1-(5-fluoropyrimidin-2-yl)-1-methoxypropane-2-sulfonamide or (1S,2S)-N-(4-(2,6-dimethoxyphenyl)-5-(5-methylfuran-2-yl)-4H-1,2,4-triazol-3-yl)-1-(5-fluoropyrimidin-2-yl)-1-methoxypropane-2-sulfonamide]: the EC50 turned out to be 0.22 nM.
The same measure for `COc1cccc(OC)c1-n1c(NS(=O)(=O)[C@@H](C)[C@H](OC)c2ncc(F)cn2)nnc1-c1ccc(C)o1` (single isomer, unassigned) [Example 116.0, (1R,2S)-N-(4-(2,6-dimethoxyphenyl)-5-(5-methylfuran-2-yl)-4H-1,2,4-triazol-3-yl)-1-(5-fluoropyrimidin-2-yl)-1-methoxypropane-2-sulfonamide or (1S,2R)-N-(4-(2,6-dimethoxyphenyl)-5-(5-methylfuran-2-yl)-4H-1,2,4-triazol-3-yl)-1-(5-fluoropyrimidin-2-yl)-1-methoxypropane-2-sulfonamide]: 0.056 nM; for `COc1cccc(OC)c1-n1c(NS(=O)(=O)[C@H](C)[C@@H](OC)c2cn3ccccc3n2)nnc1-c1ccc(C)o1` (single isomer, unassigned) [Example 287.0, (1R,2S)—N-(4-(2,6-Dimethoxyphenyl)-5-(5-methyl-2-furanyl)-4H-1,2,4-triazol-3-yl)-1-imidazo[1,2-a]pyridin-2-yl-1-methoxy-2-propanesulfonamide or (1S,2R)—N-(4-(2,6-dimethoxyphenyl)-5-(5-methyl-2-furanyl)-4H-1,2,4-triazol-3-yl)-1-imidazo[1,2-a]pyridin-2-yl-1-methoxy-2-propanesulfonamide]: 4.1 nM.
With `COc1cccc(OC)c1-n1c(NS(=O)(=O)[C@H](C)Cc2ccc(C)nn2)nnc1-c1ccco1` (single isomer, unassigned) [Example 42.0, (2R)—N-(4-(2,6-dimethoxyphenyl)-5-(2-furanyl)-4H-1,2,4-triazol-3-yl)-1-(6-methyl-3-pyridazinyl)-2-propanesulfonamide or (2S)—N-(4-(2,6-dimethoxyphenyl)-5-(2-furanyl)-4H-1,2,4-triazol-3-yl)-1-(6-methyl-3-pyridazinyl)-2-propanesulfonamide] the figure was 12 nM; with `COc1cccc(OC)c1-n1c(NS(=O)(=O)C[C@](C)(F)c2ncc(C#N)cn2)nnc1-c1ccc(C)o1` (single isomer, unassigned) [Example 245.0, (2R)-2-(5-Cyano-2-pyrimidinyl)-N-(4-(2,6-dimethoxyphenyl)-5-(5-methyl-2-furanyl)-4H-1,2,4-triazol-3-yl)-2-fluoro-1-propanesulfonamide or (2S)-2-(5-cyano-2-pyrimidinyl)-N-(4-(2,6-dimethoxyphenyl)-5-(5-methyl-2-furanyl)-4H-1,2,4-triazol-3-yl)-2-fluoro-1-propanesulfonamide], 0.95 nM; with `COc1cccc(OC)c1-n1c(NS(=O)(=O)[C@@H](C)[C@@H](O)c2cc3ccccn3n2)nnc1-c1ccc(C)o1` (single isomer, unassigned) [Example 304.0, (1S,2S)—N-(4-(2,6-Dimethoxyphenyl)-5-(5-methyl-2-furanyl)-4H-1,2,4-triazol-3-yl)-1-hydroxy-1-pyrazolo[1,5-a]pyridin-2-yl-2-propanesulfonamide or (1R,2R)—N-(4-(2,6-dimethoxyphenyl)-5-(5-methyl-2-furanyl)-4H-1,2,4-triazol-3-yl)-1-hydroxy-1-pyrazolo[1,5-a]pyridin-2-yl-2-propanesulfonamide], 16 nM.
With `COCCO[C@H](c1ncc(C)cn1)[C@H](C)S(=O)(=O)Nc1nnc(-c2ccc(C)o2)n1-c1c(OC)cccc1OC` [Example 120.0, (1R,2S)—N-(4-(2,6-Dimethoxyphenyl)-5-(5-methylfuran-2-yl)-4H-1,2,4-triazol-3-yl)-1-(2-methoxyethoxy)-1-(5-methylpyrimidin-2-yl)propane-2-sulfonamide] the figure was 0.15 nM; with `COc1cccc(OC)c1-n1c(NS(=O)(=O)[C@@H](C)[C@@H](O)c2coc(C)n2)nnc1-c1ccc(C)o1` (racemic) [Example 300.0, (1R,2R)—N-(4-(2,6-Dimethoxyphenyl)-5-(5-methyl-2-furanyl)-4H-1,2,4-triazol-3-yl)-1-hydroxy-1-(2-methyl-1,3-oxazol-4-yl)-2-propanesulfonamide and (1S,2S)—N-(4-(2,6-dimethoxyphenyl)-5-(5-methyl-2-furanyl)-4H-1,2,4-triazol-3-yl)-1-hydroxy-1-(2-methyl-1,3-oxazol-4-yl)-2-propanesulfonamide], 12 nM; with `COc1cccc(OC)c1-n1c(NS(=O)(=O)c2cccc(CO)c2)nnc1-c1ccc(C)o1` [Example 409.0, N-(4-(2,6-dimethoxyphenyl)-5-(5-methyl-2-furanyl)-4H-1,2,4-triazol-3-yl)-3-(hydroxymethyl)benzenesulfonamide], 43 nM.
As for `COc1cccc(OC)c1-n1c(NS(=O)(=O)CCN2Cc3ccccc3C2=O)nnc1-c1ccco1` [Example 2.0, N-(4-(2,6-Dimethoxyphenyl)-5-(2-furanyl)-4H-1,2,4-triazol-3-yl)-2-(1-oxo-1,3-dihydro-2H-isoindol-2-yl)ethanesulfonamide], the concentration giving a half-maximal response (EC50) came to 13000 nM.
With `COc1cccc(OC)c1-n1c(NS(=O)(=O)[C@H](C)Cc2ccc(C)nn2)nnc1-c1ccc(C)o1` (single isomer, unassigned) [Example 43.0, (2R)—N-(4-(2,6-dimethoxyphenyl)-5-(5-methyl-2-furanyl)-4H-1,2,4-triazol-3-yl)-1-(6-methyl-3-pyridazinyl)-2-propanesulfonamide or (2S)—N-(4-(2,6-dimethoxyphenyl)-5-(5-methyl-2-furanyl)-4H-1,2,4-triazol-3-yl)-1-(6-methyl-3-pyridazinyl)-2-propanesulfonamide] the figure was 25 nM; with `COc1cccc(OC)c1-n1c(NS(=O)(=O)CCc2ccc(C#N)cn2)nnc1-c1ccc(C)o1` [Example 19.0, 2-(5-cyano-2-pyridinyl)-N-(4-(2,6-dimethoxyphenyl)-5-(5-methyl-2-furanyl)-4H-1,2,4-triazol-3-yl)ethanesulfonamide], 0.29 nM.
With `COC[C@H](C)n1c(NS(=O)(=O)[C@@H](C)[C@H](C)c2ncc(Cl)cn2)nnc1-c1ccc(C)o1` [Example 398.0, (2S,3R)-3-(5-chloro-2-pyrimidinyl)-N-(4-((2S)-1-methoxy-2-propanyl)-5-(5-methyl-2-furanyl)-4H-1,2,4-triazol-3-yl)-2-butanesulfonamide] the figure was 10 nM.

As usually defined, the EC50 is the concentration at which the effect is half-maximal.

(Values after patent publication US10736883B2, “Triazole furan compounds as agonists of the APJ receptor” (AMGEN INC., priority 2016, dated 2020).)
